In ChEMBL document CHEMBL1132901, “Synthesis and structure-activity relationships of quaternary ammonium cephalosporins with 3-pyrazolylpyridinium derivatives” (2000):
In brackets after ≈: the same amount, converted by molar mass.

What was measured:
[1] = tested on: Enterobacter cloacae; test: In vitro antimicrobial activity against Enterobacter 1321 E; assay type: functional
[2] = tested on: Escherichia coli; test: In vitro antimicrobial activity against Escherichia coli 055; assay type: functional
[3] = tested on: Escherichia coli; test: In vitro antimicrobial activity against Escherichia coli 1507E; assay type: functional
[4] = tested on: Escherichia coli; test: In vitro antimicrobial activity against Escherichia coli DC 0; assay type: functional
[5] = tested on: Escherichia coli; test: In vitro antimicrobial activity against Escherichia coli DC 2; assay type: functional
[6] = tested on: Escherichia coli; test: In vitro antimicrobial activity against Escherichia coli TEM; assay type: functional
[7] = tested on: Enterobacter cloacae; test: In vitro antimicrobial activity against Enterobacter cloacae P99; assay type: functional
[8] = tested on: Klebsiella oxytoca; test: In vitro antimicrobial activity against Klebsiella oxytoca 1082; assay type: functional
[9] = tested on: Klebsiella aerogenes; test: In vitro antimicrobial activity against Klebsiella aerogenes 1522 E; assay type: functional
[10] = tested on: Pseudomonas aeruginosa; test: In vitro antimicrobial activity against Pseudomonas aeruginosa 1771; assay type: functional
[11] = tested on: Pseudomonas aeruginosa; test: In vitro antimicrobial activity against Pseudomonas aeruginosa 1771 M; assay type: functional
[12] = tested on: Pseudomonas aeruginosa; test: In vitro antimicrobial activity against Pseudomonas aeruginosa 9027; assay type: functional
[13] = tested on: Salmonella typhimurium; test: In vitro antimicrobial activity against Salmonella Typhimurium; assay type: functional, Salmonella enterica subsp. enterica serovar Typhimurium; conditions: Salmonella enterica
[14] = tested on: Streptococcus pyogenes; test: In vitro antimicrobial activity against Streptococcus pyogenes 77A; assay type: functional
[15] = tested on: Streptococcus pyogenes; test: In vitro antimicrobial activity against Streptococcus pyogenes A 308; assay type: functional
[16] = tested on: Streptococcus pyogenes; test: In vitro antimicrobial activity against Streptococcus pyogenes SG 511; assay type: functional
[17] = tested on: Staphylococcus aureus; test: In vitro antimicrobial activity against Methicillin resistant Staphylococcus aureus (MRSA); assay type: functional
[18] = tested on: Staphylococcus aureus; test: In vitro antimicrobial activity against Staphylococcus aureus 285; assay type: functional
[19] = tested on: Staphylococcus aureus; test: In vitro antimicrobial activity against Staphylococcus aureus 503; assay type: functional
[20] = tested on: Enterococcus faecium; test: In vitro antimicrobial activity against Streptococcus faecium MD 8b; assay type: functional
[21] = tested on: Pseudomonas aeruginosa; test: In vitro antimicrobial activity against Pseudomonas aeruginosa 1592 E; assay type: functional
[22] = tested on: Streptococcus pyogenes; test: Compound has been evaluated for in vitro antimicrobial activity against Streptococcus pyogenes A 308; assay type: functional

| Compound | MIC [1] | MIC [2] | MIC [3] | MIC [4] | MIC [5] | MIC [6] | MIC [7] | MIC [8] | MIC [9] | MIC [10] | MIC [11] | MIC [12] | MIC [13] | MIC [14] | MIC [15] | MIC [16] | MIC [18] | MIC [19] | MIC [20] | MIC [21] | also measured |
| --- | --- | --- | --- | --- | --- | --- | --- | --- | --- | --- | --- | --- | --- | --- | --- | --- | --- | --- | --- | --- | --- |
| CO/N=C(/C(=O)N[C@@H]1C(=O)N2C(C(=O)[O-])=C(C[n+]3cccc(-c4cc(N)n(CCO)n4)c3)CS[C@H]12)c1csc(N)n1 | 0.025 µg/mL (≈ 0.0417 µM) | 0.025 µg/mL (≈ 0.0417 µM) | 0.098 µg/mL (≈ 0.163 µM) | 0.025 µg/mL (≈ 0.0417 µM) | 0.013 µg/mL (≈ 0.0217 µM) | 0.098 µg/mL (≈ 0.163 µM) | 50 µg/mL (≈ 83.4 µM) | 3.12 µg/mL (≈ 5.21 µM) | 0.049 µg/mL (≈ 0.0817 µM) | 3.12 µg/mL (≈ 5.21 µM) | 0.391 µg/mL (≈ 0.652 µM) | 12.5 µg/mL (≈ 20.8 µM) | 0.098 µg/mL (≈ 0.163 µM) | 0.013 µg/mL (≈ 0.0217 µM) | 0.025 µg/mL (≈ 0.0417 µM) | 0.781 µg/mL (≈ 1.3 µM) | 1.56 µg/mL (≈ 2.61 µM) | 0.391 µg/mL (≈ 0.652 µM) | 1.56 µg/mL (≈ 2.61 µM) | 6.25 µg/mL (≈ 10.4 µM) | MIC [17]: 12.5 µg/mL (≈ 20.8 µM) |
| CC(C)(O/N=C(\C(=O)N[C@@H]1C(=O)N2C(C(=O)[O-])=C(C[n+]3ccccc3)CS[C@H]12)c1csc(N)n1)C(=O)O [CEFTAZIDIME] | 0.025 µg/mL (≈ 0.0457 µM) | 0.098 µg/mL (≈ 0.179 µM) | 0.195 µg/mL (≈ 0.357 µM) | 0.098 µg/mL (≈ 0.179 µM) | 0.098 µg/mL (≈ 0.179 µM) | 0.195 µg/mL (≈ 0.357 µM) | > 100 µg/mL | 0.391 µg/mL (≈ 0.715 µM) | 0.098 µg/mL (≈ 0.179 µM) | 0.781 µg/mL (≈ 1.43 µM) | 0.195 µg/mL (≈ 0.357 µM) | 3.12 µg/mL (≈ 5.72 µM) | 0.195 µg/mL (≈ 0.357 µM) | 0.049 µg/mL (≈ 0.0896 µM) | 0.098 µg/mL (≈ 0.179 µM) | 12.5 µg/mL (≈ 22.9 µM) | 12.5 µg/mL (≈ 22.9 µM) | 3.12 µg/mL (≈ 5.72 µM) | > 100 µg/mL | 1.56 µg/mL (≈ 2.86 µM) | MIC [17]: > 100 µg/mL |
| CO/N=C(/C(=O)N[C@@H]1C(=O)N2C(C(=O)[O-])=C(C[n+]3cccc(-c4cc(CO)[nH]n4)c3)CS[C@H]12)c1csc(N)n1 | 0.049 µg/mL (≈ 0.0859 µM) | 0.049 µg/mL (≈ 0.0859 µM) | 0.098 µg/mL (≈ 0.172 µM) | 0.049 µg/mL (≈ 0.0859 µM) | 0.025 µg/mL (≈ 0.0438 µM) | 0.195 µg/mL (≈ 0.342 µM) | > 12.5 µg/mL | 3.12 µg/mL (≈ 5.48 µM) | 0.049 µg/mL (≈ 0.0859 µM) | 1.56 µg/mL (≈ 2.74 µM) | 0.391 µg/mL (≈ 0.685 µM) | 6.25 µg/mL (≈ 11 µM) | 0.098 µg/mL (≈ 0.172 µM) | 0.013 µg/mL (≈ 0.0228 µM) | 0.025 µg/mL (≈ 0.0438 µM) | 1.56 µg/mL (≈ 2.74 µM) | 1.56 µg/mL (≈ 2.74 µM) | 0.391 µg/mL (≈ 0.685 µM) | 3.12 µg/mL (≈ 5.48 µM) | 3.12 µg/mL (≈ 5.48 µM) | – |
| CO/N=C(/C(=O)NC1C(=O)N2C(C(=O)[O-])=C(C[n+]3cccc4c3CCC4)CSC12)c1csc(N)n1 (stereo unspecified) | 0.013 µg/mL (≈ 0.0253 µM) | 0.025 µg/mL (≈ 0.0486 µM) | 0.025 µg/mL (≈ 0.0486 µM) | 0.013 µg/mL (≈ 0.0253 µM) | 0.013 µg/mL (≈ 0.0253 µM) | 0.049 µg/mL (≈ 0.0952 µM) | 3.12 µg/mL (≈ 6.07 µM) | 1.56 µg/mL (≈ 3.04 µM) | 0.025 µg/mL (≈ 0.0486 µM) | 0.781 µg/mL (≈ 1.52 µM) | 0.195 µg/mL (≈ 0.379 µM) | 3.12 µg/mL (≈ 6.07 µM) | 0.025 µg/mL (≈ 0.0486 µM) | 0.007 µg/mL (≈ 0.0136 µM) | – | 0.391 µg/mL (≈ 0.76 µM) | 0.781 µg/mL (≈ 1.52 µM) | 0.098 µg/mL (≈ 0.19 µM) | 1.56 µg/mL (≈ 3.04 µM) | 1.56 µg/mL (≈ 3.04 µM) | MIC [22]: 0.007 µg/mL (≈ 0.0136 µM); MIC [17]: 25 µg/mL (≈ 48.6 µM) |
| CO/N=C(/C(=O)N[C@@H]1C(=O)N2C(C(=O)[O-])=C(C[n+]3cccc(-c4cc(C(N)=O)[nH]n4)c3)CS[C@H]12)c1csc(N)n1 | 0.025 µg/mL (≈ 0.0428 µM) | 0.025 µg/mL (≈ 0.0428 µM) | 0.098 µg/mL (≈ 0.168 µM) | 0.025 µg/mL (≈ 0.0428 µM) | 0.025 µg/mL (≈ 0.0428 µM) | 0.195 µg/mL (≈ 0.334 µM) | 50 µg/mL (≈ 85.7 µM) | 1.56 µg/mL (≈ 2.68 µM) | 0.049 µg/mL (≈ 0.084 µM) | 1.56 µg/mL (≈ 2.68 µM) | 0.781 µg/mL (≈ 1.34 µM) | 6.25 µg/mL (≈ 10.7 µM) | 0.049 µg/mL (≈ 0.084 µM) | 0.013 µg/mL (≈ 0.0223 µM) | 0.013 µg/mL (≈ 0.0223 µM) | 0.781 µg/mL (≈ 1.34 µM) | 1.56 µg/mL (≈ 2.68 µM) | 0.391 µg/mL (≈ 0.67 µM) | 3.12 µg/mL (≈ 5.35 µM) | 3.12 µg/mL (≈ 5.35 µM) | MIC [17]: 50 µg/mL (≈ 85.7 µM) |
| CO/N=C(/C(=O)N[C@@H]1C(=O)N2C(C(=O)[O-])=C(C[n+]3cccc(-c4cc(C)[nH]n4)c3)CS[C@H]12)c1csc(N)n1 | 0.013 µg/mL (≈ 0.0234 µM) | 0.025 µg/mL (≈ 0.0451 µM) | 0.098 µg/mL (≈ 0.177 µM) | 0.025 µg/mL (≈ 0.0451 µM) | 0.013 µg/mL (≈ 0.0234 µM) | 0.098 µg/mL (≈ 0.177 µM) | 50 µg/mL (≈ 90.2 µM) | 1.56 µg/mL (≈ 2.82 µM) | 0.049 µg/mL (≈ 0.0883 µM) | 1.56 µg/mL (≈ 2.82 µM) | 0.781 µg/mL (≈ 1.41 µM) | 6.25 µg/mL (≈ 11.3 µM) | 0.098 µg/mL (≈ 0.177 µM) | 0.007 µg/mL (≈ 0.0126 µM) | 0.007 µg/mL (≈ 0.0126 µM) | 0.781 µg/mL (≈ 1.41 µM) | 0.781 µg/mL (≈ 1.41 µM) | 0.195 µg/mL (≈ 0.352 µM) | 3.12 µg/mL (≈ 5.63 µM) | 3.12 µg/mL (≈ 5.63 µM) | MIC [17]: 25 µg/mL (≈ 45.1 µM) |
| CO/N=C(/C(=O)N[C@@H]1C(=O)N2C(C(=O)[O-])=C(C[n+]3cccc(-c4cc(C(N)=O)nn4C)c3)CS[C@H]12)c1csc(N)n1 | 0.025 µg/mL (≈ 0.0418 µM) | 0.049 µg/mL (≈ 0.082 µM) | 0.098 µg/mL (≈ 0.164 µM) | 0.049 µg/mL (≈ 0.082 µM) | 0.025 µg/mL (≈ 0.0418 µM) | 0.195 µg/mL (≈ 0.326 µM) | 25 µg/mL (≈ 41.8 µM) | 3.12 µg/mL (≈ 5.23 µM) | 0.049 µg/mL (≈ 0.082 µM) | 3.12 µg/mL (≈ 5.23 µM) | 0.391 µg/mL (≈ 0.654 µM) | 25 µg/mL (≈ 41.8 µM) | 0.098 µg/mL (≈ 0.164 µM) | 0.013 µg/mL (≈ 0.0218 µM) | 0.025 µg/mL (≈ 0.0418 µM) | 1.56 µg/mL (≈ 2.62 µM) | 3.12 µg/mL (≈ 5.23 µM) | 0.391 µg/mL (≈ 0.654 µM) | 3.12 µg/mL (≈ 5.23 µM) | 12.5 µg/mL (≈ 20.9 µM) | MIC [17]: 100 µg/mL (≈ 167 µM) |
